Reference: patent US20140249141A1, “1,4-DIAZABICYCLO[3.2.2]NONANES AS NEURONAL NICOTINIC ACETYLCHOLINE RECEPTOR LIGANDS” (Targacept, Inc., priority 2011, published 2014)
pKi: −log10 of the molar value. “Also recorded” adds a separate entry of the source. Like-named read-outs stand apart in the source and are kept apart here.

Experiments:
[1] = target: T1, human α4β2 (Homo sapiens, UniProt P17787+P43681); assay: Competition binding to human α4β2 nicotinic receptor in membrane preparations
T1 construct: expressed in transfected cells; membranes prepared from the cells
Method: (§1) SH-EP1/human α4β2 (Eaton et al., 2003), SH-EP1/human α4β4 (Gentry et al., 2003), SH-EP1/α6β3β4α5 (Grinevich et al., 2005), TE671/RD and SH-SY5Y cell lines (obtained from Dr. Ron Lukas, Barrow Neurological Institute, St. Joseph's Hospital and Medical Center, Phoenix, Ariz.) were maintained in proliferative growth phase in Dulbecco's modified Eagle's medium (Gibco/BRL) with 10% horse serum (Gibco BRL), 5% fetal bovine serum (HyClone, Logan Utah), 1 mM sodium pyruvate, 4 mM L-glutamine. For maintenance of stable transfectants, the α4β2 and α4β4 cell media was supplemented with 0.25 mg/mL zeocin and 0.13 mg/mL hygromycin B. Selection was maintained for the α6β3β4α5 cells with 0.25 mg/mL of zeocin, 0.13 mg/mL of hygromycin B, 0.4 mg/mL of geneticin, and 0.2 mg/mL of blasticidin. HEK/human α7/RIC3 cells (obtained from J. Lindstrom, U. Pennsylvania, Philadelphia, Pa.) were maintained in proliferative growth phase in Dulbecco's modified Eagle's medium (Gibco/BRL) with 10% fetal bovine serum (HyClone, Logan Utah), 1 mM sodium pyruvate, 4 mM L-glutamine, 0.4 mg/mL geneticin; 0.2 mg/ml hygromycin B.
(§2) Cells were harvested in ice-cold PBS, pH 7.4, then homogenized with a polytron (Brinkmann Instruments, Westbury, N.Y.). Homongenates were centrifuged at 40,000 g for 20 minutes (4° C.). The pellet was resuspended in PBS and protein concentration determined using the Pierce BCA Protein Assay kit (Pierce Biotechnology, Rockford, Ill.).
(§3) Binding to nicotinic receptors was assayed on membranes using standard methods adapted from published procedures (Lippiello and Fernandes, 1986; Davies et al., 1999). In brief, membranes were reconstituted from frozen stocks (approximately 0.2 mg protein) and incubated for 2 h on ice in […] assay buffer (PBS) in the presence of competitor compound (0.001 nM to 100 mM) and radioligand. […] Filters were washed 3 times and the radioactivity retained was determined by liquid scintillation counting.
(§4) Binding data were expressed as percent total control binding. […] Ki was calculated using the Cheng-Prusoff equation (Cheng and Prusoff, 1973).

[2] = target: T2, human α7 (Homo sapiens, UniProt P36544); assay: Competition binding to human α7 nicotinic receptor in membrane preparations
T2 construct: expressed in transfected cells; host or cells: HEK cells expressing human α7 and RIC3, obtained from J. Lindstrom, U. Pennsylvania; membranes prepared from the cells
Method: as §1, §2, §3, §4

[3] = system: ova-challenged mice; assay: Ovalbumin-induced lung inflammation (allergic asthma) model, airway hyperresponsiveness; format: in vivo; conditions: FIGS. 1 and 2, compared to control
Text: Ovalbumin-induced allergic asthma is a widely used model to reproduce the airway eosinophilia, pulmonary inflammation and elevated IgE levels found during asthma. Studies can be run with or without airway hyper-responsiveness (AHR) measurements. Allergic asthma is typically triggered by allergens in the air such as pollen, mold, dust mites, etc., and is commonly characterized by reversible […], elevated levels of IgE causing mast cell activation, chronic airway inflammation, and airway hyper-responsiveness (AHR). The immunological processes involved are characterized by proliferation and activation of Th2 lymphocytes, setting off an allergic cascade.
FIGS. 1 and 2 illustrate Compound A and Control compounds in the ovalbumin-induced lung inflammation model. For detailed procedures, see Hamelmann E, Schwarze J, Takeda K, Oshiba A, Larsen G L, Irvin C G, and Gelfand E W. Noninvasive measurement of airway responsiveness in allergic mice using barometric plethysmography. Am. J. Respir. Crit. Care Med 156: 766-775, 1997, herein incorporated by reference.

[4] = SH-EP1/human α4β2 cell membranes, [3H]-nicotine, Cheng-Prusoff, read-out: Human α4β2 Ki

| Structure (SMILES) | pKi [1] | pKi [2] | pKi [1, 4] | pKi ([2]; HEK/human α7/RIC3 cell membranes, [3H]-epibatidine, Cheng-Prusoff, read-out: Human α7 Ki) | methacholine (MCh)-induced bronchoconstriction (Penh, index of airway resistance) [3] |
| --- | --- | --- | --- | --- | --- |
| O=c1cc(N2CCN3CCC2CC3)nc2c3ccccc3on12 | 5.92 | 7.26 |  |  |  |
| O=c1cc(N2CCN3CCC2CC3)nc2cc(-c3ccccc3)on12 |  |  | 5.92 | 6.55 |  |
| Cc1cc2nc(N3CCN4CCC3CC4)cc(=O)n2o1 [Compound A, 5-(1,4-diazabicyclo[3.2.2]nonan-4-yl)-2-methyl-7H-isoxazolo[2,3-a]pyrimidin-7-one] |  |  |  |  | statistically significant results; also recorded: reduces methacholine (MCh)-induced bronchoconstriction |
| Cc1cc2nc(N3CCN4CCC3CC4)cc(=O)n2o1 [drawing 5] |  | 7.38 | 5.49 |  |  |
